Source: PubChem BioAssay (NCI)
Values joined by “and” are separate entries in the source; they are usually repeats but may differ in a detail not shown here. Equal values may be shown once.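 How tested: cells in 96-well plates exposed to compound for 48 hours at five concentrations. GI50 marks 50% less growth. At the TGI there is no net growth.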

What was measured:
Assay in all cases: NCI tumour cell line growth inhibition, 48 h
DMS 273 small cell lung = test system: DMS 273 small cell lung
HOP-18 NSCLC = test system: HOP-18 NSCLC
KM20L2 colon = test system: KM20L2 colon
LXFL 529 NSCLC = test system: LXFL 529 NSCLC
M19-MEL melanoma = test system: M19-MEL melanoma
RXF-631 renal = test system: RXF-631 renal
SNB-78 CNS = test system: SNB-78 CNS
XF 498 CNS = test system: XF 498 CNS
P388 leukemia = test system: P388 leukemia
P388/ADR leukemia = test system: P388/ADR leukemia
SN12K1 renal = test system: SN12K1 renal

Row | SMILES | TGI (DMS 273 small cell lung) | TGI (HOP-18 NSCLC) [nM] | TGI (KM20L2 colon) | TGI (LXFL 529 NSCLC) [nM] | TGI (M19-MEL melanoma) | TGI (RXF-631 renal) [nM] | TGI (SNB-78 CNS) | TGI (XF 498 CNS) | GI50 (DMS 273 small cell lung) [nM] | GI50 (KM20L2 colon) [nM] | GI50 (M19-MEL melanoma) [nM] | GI50 (P388 leukemia) [nM] | TGI (P388 leukemia) | GI50 (P388/ADR leukemia) [nM] | TGI (P388/ADR leukemia) | GI50 (SN12K1 renal) | TGI (SN12K1 renal) | GI50 (SNB-78 CNS) [nM] | GI50 (XF 498 CNS) [nM]
1 | N#CC1(CCCI)CCCC1 | > 100000 nM | 36300 | > 100000 nM | > 100000 | 45000 nM | 3230 | 38300 nM | 47300 nM |  |  |  |  |  |  |  |  |  |  | 
2 | CC[C@@]1(O)CC(OC2CC(N3CCOCC3)C(O)C(C)O2)c2c(O)c3c(c(O)c2[C@H]1O)C(=O)c1cccc(O)c1C3=O (stereo partly specified) | 1100 nM and 393 nM |  | 3840 nM and 1860 nM |  | 981 nM and 2140 nM |  | 2830 nM and 24300 nM | 278 nM and 362 nM | 18 | 102 | 71.6 | 0.000179 | 1080 nM and 799 nM | 4.4 | 2940 nM and 770 nM | 15.3 nM and 10.2 nM | 403 nM and 297 nM | 640 | 34.1
3 | C=C(CN(C)C)C(=O)c1ccccc1OC | 34000 nM | 20200 | 50800 nM | 11500 | 32400 nM |  | 62800 nM | 32300 nM |  |  |  |  |  |  |  |  |  |  | 
